According to the NIST ThermoML archive (doi:10.1016/j.jct.2015.03.011):
Values joined by “and” are separate entries in the source; they are usually repeats but may differ in a detail not shown here. Identical values can stand only once.

Conditions: Liquid, Transpiration method

CC(C)(N)CN [2-methyl-1,2-propanediamine]
Conditions	vapor or sublimation pressure
276 K	0.2878 kPa
276.6 K	0.3031 kPa
277.6 K	0.3267 kPa
278.1 K	0.3442 kPa
279.3 K	0.3687 kPa
280.6 K	0.405 kPa
282.4 K	0.4569 kPa and 0.4785 kPa
283.2 K	0.492 kPa
284.5 K	0.548 kPa and 0.5301 kPa
286 K	0.5853 kPa
288.4 K	0.7053 kPa
290.4 K	0.7971 kPa
292.5 K	0.9233 kPa
294.3 K	1.052 kPa
295.9 K	1.144 kPa
297.2 K	1.299 kPa
299 K	1.422 kPa
300.3 K	1.575 kPa
302 K	1.752 kPa
304.6 K	2.037 kPa
306.1 K	2.247 kPa
307.6 K	2.451 kPa
308.7 K	2.62 kPa

CC(N)CN (stereo unspecified) [1,2-propanediamine]
Conditions	vapor or sublimation pressure [kPa]
273.8 K	0.2726
274.9 K	0.2967
276.6 K	0.3411
277 K	0.3482
279.1 K	0.4011
279.7 K	0.4205
281.3 K	0.4594
282.7 K	0.5281
283.2 K	0.5245
285.3 K	0.6214
285.7 K	0.6306
287.3 K	0.72
288.7 K	0.7897
289.2 K	0.8316
291.2 K	0.9464
291.7 K	0.9537
293.1 K	1.069
294.7 K	1.187
295.2 K	1.234
297.1 K	1.357
297.6 K	1.422
299.1 K	1.559
299.6 K	1.629
301.2 K	1.82
301.7 K	1.84
303.2 K	2.075
303.7 K	2.099
305.7 K	2.354
